# Measurements: patent US20240317721A1, “PYRAZOLYL DERIVATIVES AS INHIBITORS OF THE KRAS MUTANT PROTEIN” (NOVARTIS AG, priority 2021, published 2024)
# Molecular target: KRasG12C (M1-K169, biotinylated on the N-terminus) (Homo sapiens (Human), UniProt P01116, G12C)
# Test: Covalent competition assay: scintillation proximity assay (SPA) quantifying covalent modification of KRASG12C
# Assay type: binding
# Settings: competition with radiolabeled covalent probe (Compound B/Compound A), 2 hours incubation, 10 nM KRasG12C
# Procedure, shortened: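 Test compounds compete with a radiolabeled covalent probe for modification of N-terminally biotinylated KRasG12C(M1-K169):GDP, final 10 nM protein, 25 nM radio-ligand, 475 nM unlabelled ligand, 2 h with agitation in 20 mM Tris-HCl pH 7.5, 150 mM NaCl, 0.1 mM MgCl2, 0.01% Tween-20.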
row,Structure (SMILES),IC50 [nM]
1,"C=CC(=O)N1CC2(CC(n3nc(N4CCN(C5CCOCC5)C[C@]4(C)COC)c(-c4c(Cl)c(Cl)cc5[nH]ncc45)c3C)C2)C1 (single isomer, unassigned) [Example 150a]",252
2,"C=CC(=O)N1CC2(CC(n3nc(N4CCN(C5CCOCC5)C[C@]4(C)COC)c(-c4c(Cl)c(Cl)cc5[nH]ncc45)c3C)C2)C1 (single isomer, unassigned) [Example 150b]",< 5
3,"C=CC(=O)N1CC2(CC(n3nc(N4CCN(C5CCOCC5)C[C@]4(C)C(F)F)c(-c4c(Cl)c(C)cc5[nH]ncc45)c3C)C2)C1 (single isomer, unassigned) [Example 151a]",46
4,"C=CC(=O)N1CC2(CC(n3nc(N4CCN(C5CCOCC5)C[C@]4(C)C(F)F)c(-c4c(Cl)c(C)cc5[nH]ncc45)c3C)C2)C1 (single isomer, unassigned) [Example 151b]",> 5000
5,"C=CC(=O)N1CC2(CC(n3nc(N4CCN(C5COC5)CC4(CC)CC)c(-c4c(Cl)c(C)cc5[nH]ncc45)c3C)C2)C1 (single isomer, unassigned) [Example 152a, 1-(6-(4-(5-chloro-6-methyl-1H-indazol-4-yl)-3-(2,2-diethyl-4-(oxetan-3-yl)piperazin-1-yl)-5-methyl-1H-pyrazol-1-yl)-2-azaspiro[3.3]heptan-2-yl)prop-2-en-1-one]",> 5000
6,"C=CC(=O)N1CC2(CC(n3nc(N4CCN(C5COC5)CC4(CC)CC)c(-c4c(Cl)c(C)cc5[nH]ncc45)c3C)C2)C1 (single isomer, unassigned) [Example 152b, 1-(6-(4-(5-chloro-6-methyl-1H-indazol-4-yl)-3-(2,2-diethyl-4-(oxetan-3-yl)piperazin-1-yl)-5-methyl-1H-pyrazol-1-yl)-2-azaspiro[3.3]heptan-2-yl)prop-2-en-1-one]",45
7,"C=CC(=O)N1CC2(CC(n3nc(N4CCN(C[C@H]5CCCO5)CC45CCC5)c(-c4c(Cl)c(C)cc5[nH]ncc45)c3C)C2)C1 (single isomer, unassigned) [Example 153a]",> 5000
8,"C=CC(=O)N1CC2(CC(n3nc(N4CCN(C[C@H]5CCCO5)CC45CCC5)c(-c4c(Cl)c(C)cc5[nH]ncc45)c3C)C2)C1 (single isomer, unassigned) [Example 153b]",19
9,"C=CC(=O)N1CC2(CC(n3nc(N4CCN(CC5(O)CC5)CC45CCC5)c(-c4c(Cl)c(C)cc5[nH]ncc45)c3C)C2)C1 (single isomer, unassigned) [Example 154a, 1-(6-(4-(5-chloro-6-methyl-1H-indazol-4-yl)-3-(8-((1-hydroxycyclopropyl)methyl)-5,8-diazaspiro[3.5]nonan-5-yl)-5-methyl-1H-pyrazol-1-yl)-2-azaspiro[3.3]heptan-2-yl)prop-2-en-1-one]",> 5000
10,"C=CC(=O)N1CC2(CC(n3nc(N4CCN(CC5(O)CC5)CC45CCC5)c(-c4c(Cl)c(C)cc5[nH]ncc45)c3C)C2)C1 (single isomer, unassigned) [Example 154b, 1-(6-(4-(5-chloro-6-methyl-1H-indazol-4-yl)-3-(8-((1-hydroxycyclopropyl)methyl)-5,8-diazaspiro[3.5]nonan-5-yl)-5-methyl-1H-pyrazol-1-yl)-2-azaspiro[3.3]heptan-2-yl)prop-2-en-1-one]",22
11,"C=CC(=O)N1CC2(CC(n3nc(N4CCN(C5COC5)C[C@]4(C)CC)c(-c4c(Cl)c(Cl)cc5[nH]ncc45)c3C)C2)C1 (single isomer, unassigned) [Example 155a]",4000
12,"C=CC(=O)N1CC2(CC(n3nc(N4CCN(C5COC5)C[C@]4(C)CC)c(-c4c(Cl)c(Cl)cc5[nH]ncc45)c3C)C2)C1 (single isomer, unassigned) [Example 155b]",5
13,"C=CC(=O)N1CC2(CC(n3nc(N4CCN(C5CCOCC5)C[C@@]4(CC)C(F)F)c(-c4c(Cl)c(C)cc5[nH]ncc45)c3C)C2)C1 (single isomer, unassigned) [Example 156a]",> 5000
14,"C=CC(=O)N1CC2(CC(n3nc(N4CCN(C5CCOCC5)C[C@@]4(CC)C(F)F)c(-c4c(Cl)c(C)cc5[nH]ncc45)c3C)C2)C1 (single isomer, unassigned) [Example 156b]",8
15,"C=CC(=O)N1CC2(CC(n3nc(N4CCN(C5CCCOC5)C[C@]4(C)CC)c(-c4c(Cl)c(C)cc5[nH]ncc45)c3C)C2)C1 (single isomer, unassigned) [Example 157a]",> 5000
16,"C=CC(=O)N1CC2(CC(n3nc(N4CCN(C5CCCOC5)C[C@]4(C)CC)c(-c4c(Cl)c(C)cc5[nH]ncc45)c3C)C2)C1 (single isomer, unassigned) [Example 157b]",> 5000
17,"C=CC(=O)N1CC2(CC(n3nc(N4CCN(C5CCCOC5)C[C@]4(C)CC)c(-c4c(Cl)c(C)cc5[nH]ncc45)c3C)C2)C1 (single isomer, unassigned) [Example 157c]",6
18,"C=CC(=O)N1CC2(CC(n3nc(N4CCN(C5CCCOC5)C[C@]4(C)CC)c(-c4c(Cl)c(C)cc5[nH]ncc45)c3C)C2)C1 (single isomer, unassigned) [Example 157d]",7
19,"C=CC(=O)N1CC2(CC(n3nc(N4CCN(C5COC5)C[C@]4(C)CC)c(-c4c(Cl)c(C)cc5[nH]nc(N)c45)c3C)C2)C1 (single isomer, unassigned) [Example 158a]",6
20,"C=CC(=O)N1CC2(CC(n3nc(N4CCN(C5COC5)C[C@]4(C)CC)c(-c4c(Cl)c(C)cc5[nH]nc(N)c45)c3C)C2)C1 (single isomer, unassigned) [Example 158b]",172
21,"C=CC(=O)N1CC2(CC(n3nc(N4CCN(C5COCCOC5)C[C@]4(C)CC)c(-c4c(Cl)c(C)cc5[nH]ncc45)c3C)C2)C1 (single isomer, unassigned) [Example 159a]",715
22,"C=CC(=O)N1CC2(CC(n3nc(N4CCN(C5COCCOC5)C[C@]4(C)CC)c(-c4c(Cl)c(C)cc5[nH]ncc45)c3C)C2)C1 (single isomer, unassigned) [Example 159b]",9
23,"C=CC(=O)N1CC2(CC(n3nc(N4CCN(CC(C)(C)O)CC45CCC5)c(-c4c(Cl)c(C)cc5[nH]ncc45)c3C)C2)C1 (single isomer, unassigned) [Example 160a, 1-(6-(4-(5-Chloro-6-methyl-1H-indazol-4-yl)-3-(8-(2-hydroxy-2-methylpropyl)-5,8-diazaspiro[3.5]nonan-5-yl)-5-methyl-1H-pyrazol-1-yl)-2-azaspiro[3.3]heptan-2-yl)prop-2-en-1-one]",> 5000
24,"C=CC(=O)N1CC2(CC(n3nc(N4CCN(CC(C)(C)O)CC45CCC5)c(-c4c(Cl)c(C)cc5[nH]ncc45)c3C)C2)C1 (single isomer, unassigned) [Example 160b, 1-(6-(4-(5-Chloro-6-methyl-1H-indazol-4-yl)-3-(8-(2-hydroxy-2-methylpropyl)-5,8-diazaspiro[3.5]nonan-5-yl)-5-methyl-1H-pyrazol-1-yl)-2-azaspiro[3.3]heptan-2-yl)prop-2-en-1-one]",27
25,"C=CC(=O)N1CC2(CC(n3nc(N4CCN(CC(C)(C)O)C[C@]4(C)CC)c(-c4c(Cl)c(C)cc5[nH]ncc45)c3C)C2)C1 (single isomer, unassigned) [Example 161a]",912
26,"C=CC(=O)N1CC2(CC(n3nc(N4CCN(CC(C)(C)O)C[C@]4(C)CC)c(-c4c(Cl)c(C)cc5[nH]ncc45)c3C)C2)C1 (single isomer, unassigned) [Example 161b]",8
